The text below walks through data of patent publication US7910624B1, “Compositions for the treatment of blood disorders” (The Trustees of Boston University, priority 1995, dated 2011).

One experiment relates to K562 cells. Kind of experiment: Dose response, total and viable cells by trypan blue exclusion (FIG. 3). The class given is cell-based, human. The conditions noted are these: day 4. As for the experimental part:
FIG. 3 A FIG. 3E Cell viability as determined by the comparative numbers of total and viable K562 cells in the presence of increasing concentrations of (A) phenoxyacetic acid, (B) dihydrocinnamic acid, (C) butyric acid ethyl ester, (D) arginine butyrate, and (E) isobutyramide.
Dose response curves at dosages of up to 2.0 mM were also determined for phenoxyacetic acid (PAA; FIG. 3A), dihydrocinnamic acid (DHC; FIG. 3B), butyric acid ethyl ester (BAEE; FIG. 3C), arginine butyrate (AB; FIG. 3D) and isobutyramide (IBT; FIG. 3E). Cells were counted on day 4 of treatment and viable cells identified by trypan blue exclusion.

In another experiment the test system is anemic juvenile baboons. Briefly: In vivo reticulocyte proliferation and globin expression in phlebotomized anemic baboons. Also noted: species or system baboon. An outline of the steps:
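Juvenile female baboons, phlebotomized daily to hemoglobin 7.0-7.5 g/dl, received compounds sequentially with washout to baseline reticulocytes, each animal its own control. HbF-positive reticulocytes were counted by dual-antibody FACS. γ/(γ+β) globin synthesis ratio came from ^3H-leucine labeling and chromatographic chain separation, unadjusted for phlebotomy.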

In experiment [1] the test system is human erythroid cell line K562. Kind of experiment: Cell viability / growth of K562 by Calcein-AM fluorescence. It counts as cell-based. The settings on record: over 3 days. As for the experimental part: Such activities might limit their utility for treatment of anemias such as occur in thalassemia, but alternatively would be useful for anticancer effects. To determine cell viability, human erythroid cells were cultured in the presence and absence of these compounds for 4 days and the amount of DNA fragmentation which occurred was measured.
(§1) Cell viability analyses were performed using fluorescent staining to detect living cells. Cells were in log phase of growth in 6-well dishes when used in proliferation assays. For enumeration of living cells, wells were washed once with medium to remove nonadherent or dead cells. Remaining live cells were labeled with Calcein-AM for 20 minutes at 37° C. and washed once. Fluorescence intensity of adherent live cells was read on a CytoFluor 2300 Fluorescence Plate Scanner (Millipore; Bedford, Mass.) at excitation and emission wavelengths of 485 and 530 nm, respectively. The fluorescence intensity of a well was proportional to the number of living cells in the well. Background fluorescence was measured separately for each plate and subtracted from all readings. Each experiment was performed in triplicate or quadruplicate. The standard deviation (SD) of repetitive readings was less than 30% of the mean.
At higher concentrations, still easily achievable in vivo, arginine butyrate (0.5 mM) and dihydrocinnamic acid (greater than 0.5 mM) inhibited growth of this tumor cell line by approximately 50%. Therefore, these compounds are also useful as anti-tumor agents.

Experiment [2] concerns system A transport in K562 cells and nucleated erythroblasts from fetal liver. Briefly: System A (neutral amino acid) transport, 3H-MAIB uptake. It counts as cell-based, human. The conditions noted are these: 1 hour incubation, FIG. 12. As for the experimental part:
Inhibition of nutrient uptake is undesirable for treatment of anemias. Methyl aminoisobutyric acid (MAIB) labeled with tritium (^3H) is normally taken up by system A amino acid transport. Cold (unlabeled) compounds were added to cultures containing ^3H-MAIB and incubated for 1 hour. Cells were harvested and the amount of ^3H taken up by cells was quantitated by scintillation counting.

The subject of experiment [3] is erythroid cells (peripheral blood cells). Briefly: Erythroid cell viability by Calcein-AM fluorescent staining (FIG. 2). The class given is cell-based. As for the experimental part: as §1, with “Compositions were tested for the ability to directly stimulate erythroid cell growth. Cell growth stimulation is a useful property for an agent to be used to treat anemias and distinguishes such agents from the cytotoxic drugs currently being tested for treatment of hemoglobinopathies. Cell viability” for “Cell viability”, “labeled with 2 μM 2′,7′-bis-(carboxyethyl)-5-(and 6)-carboxy-fluorescein acetoxy-methyl ester (Calcein-AM) (Molecular Probes; Eugene, Oreg.) for 20” for “labeled with Calcein-AM for 20”, “intensity of live cells” for “intensity of adherent live cells”, “the mean. Results are depicted in FIG. 2.” for “the mean.”

Experiment [4] has as its system Human erythroleukemia cells. Kind of experiment: Fetal globin mRNA in erythroleukemia cells by primer extension. The class given is cell-based. The settings on record: 1.0 mM, 4 days. How it is done:
Compounds were tested for increased expression of the human globin genes in human erythroid cells. In addition, as the cell line being tested is a tumor cell line, the assay determines if differentiation, a growth inhibitory effect on cancer cells, is induced by the compounds tested. Human erythroleukemia cells were cultured in RPMI media with 10% fetal calf serum alone or with treatment with various compounds for 4 days. Globin mRNA was quantitated by primer extension analysis. Fetal globin mRNA was compared to the amount of fetal globin mRNA produced in untreated cells during the same culture period. The quantitation was expressed as a percent of alpha globin mRNA which was constant. Results are expressed proportional to α-globin mRNA (Table 3).

The mark [5] stands for this setting: 1,000 to 1,500 mg/kg/day, 4 days.

For the compound `CCCC(=O)O` [AB, arginine butyrate], the “cell growth (dose response, FIG. 3)” value in the experiment on K562 cells (concentrations above 0.2 mM) is “suppressed cell growth”. For the same compound, the “response of the same monkey” value in the experiment with anemic juvenile baboons (1,000 mg/kg for 5 days or 2,000 mg/kg for 3 days) is “had not responded”. Moreover, the “growth of K562” value in experiment [1] (0.2 mM) was “either did not inhibit, or slightly enhanced growth”. Further, the “system A transport of amino acids (3H-MAIB uptake)” value (shortened to “system A transport of amino acids”) in experiment [2] is reported as “inhibited the neutral amino acid transport mechanism”. The “erythroid cell growth and proliferation compared to untreated controls (FIG. 2)” value in experiment [3] (0.2 mM) and in experiment [3] (0.5 mM) was “inhibited proliferation” each time. In experiment [4], the “induction of fetal globin mRNA in human cells” value is “significantly increased”.
Consider `O=C(O)COc1ccccc1` [PAA, Phenoxyacetic acid], for which, in the experiment with K562 cells (up to 2.0 mM), the “proliferation (dose response, FIG. 3)” value is on record as “did not significantly inhibit proliferation”. Besides, the “time the effect maintained itself after drug was discontinued” value in the experiment with anemic juvenile baboons (1,500 mg/kg each day, 5 days) is “two days”. The reticulocytes after treatment with anemic juvenile baboons (1,500 mg/kg each day, 5 days, from 1.9%) is given as 9.2 % of all red blood cells. Besides, in the experiment on anemic juvenile baboons (1,500 mg/kg each day, 5 days, from 6.9), the “white blood cell count after treatment” value was 9.5 ×10^3 cells/μl. Besides, the “packed red blood cell volume after treatment” value in the experiment with anemic juvenile baboons (1,500 mg/kg each day, 5 days, from 22%) came to 25.4%. Moreover, in the experiment with anemic juvenile baboons (setting [5]), the “fetal reticulocytes, fold above baseline” value is “eight-fold”; the “fetal reticulocytes, percent above baseline” value is given as 800%; the “increase in output of fetal globin production over basal levels” value is 4,000%. In addition, the “fetal globin protein synthesis after treatment” value in the experiment on anemic juvenile baboons (1,000 to 1,500 mg/kg/day, 4 days, from 0%) is reported as 5%. In the experiment with anemic juvenile baboons (another juvenile baboon, intravenous 1,000 to 1,500 mg/kg/day, 4 days, from 2%), the “fetal reticulocytes after treatment” value was 16%. For the same compound, in the experiment with anemic juvenile baboons (infused 1,500 mg/kg each day, 5 days (FIG. 7), from 6.8), the “total hemoglobin after treatment” value turned out to be 7.6 grams/dl. For the same compound, the “proportion of fetal reticulocytes on treatment” value in the experiment with anemic juvenile baboons (infused 5 days, 500, 1,000 and 1,500 mg/kg (8 hours each), after 3 days (FIG. 9), from 12%) amounted to 27%. The “growth of K562” value in experiment [1] (0.5 mM) was “either did not inhibit, or slightly enhanced growth”. For the same compound, in experiment [2] (listed as phenoxy acetic acid), the “system A transport of amino acids” value was “caused no significant inhibition and actually increased uptake of nutrients into cells”. For the same compound, in experiment [2] (listed as phenoxyacetic acid), the “system A transport of amino acids” value is recorded as “do not significantly alter”. Moreover, in experiment [3] (0.5 mM), the “erythroid cell growth and proliferation compared to untreated controls (FIG. 2)” value was “either had no effect or stimulated erythroid cell growth and proliferation”. In experiment [4], the “induction of fetal globin mRNA in human cells” value was “significantly increased”. Besides, the “Gamma/Alpha (fetal globin mRNA proportional to α-globin mRNA)” value in experiment [4] (untreated 0.46) was found to be 0.70. Moreover, the “Gamma Globin mRNA (increase ↑)” value in experiment [4] (versus untreated) is 24% ↑.
